# Experiments:
# [1] = Effect on weight in a model of obesity induced by a hyperlipidic diet; format: in vivo, mice; conditions: 40 mg/kg/day oral; for gain or loss of weight according to the initial weight, mean: high fat diet, Swiss male mice
# Description: 1. Effect of OBE2001 on Weight
# The aim of this first in vivo experiment is to determine the anti-obesity effect of OBE2001 in a model of obesity induced by a hyperlipidic diet in mice.
# OBE2001 (Acetyl-Ala-Phe-BoroArg) was provided under salt form (molecular weight of 568.3 g/mol). Swiss male mice, 4 weeks of age, were divided into 2 groups of 10 animals each, receiving the following:
# Administration of OBE2001 was carried out as a solution in water. Both OBE2001 or vehicle (water used a negative control) were administrated to the animals daily by the oral route in an administration of 5 ml/kg body weight.
# Concerning the feeding of the animals, before the experiments (acclimation period), normal diet (reference No. 824050 SDSIDIETEX food) was available ad libitum during the acclimation period. 7 days before the beginning of the study, a hypercaloric High Fat diet ([…], 4.73 Kcal/g; reference 824053 SDSIDIETEX) was given to groups 1 and 2.
# Animals were weighed daily from at D-8 (8 days before the beginning of the experiment) then from D-5 to the end of the study. From D1 (first day of the experiment), food was given ad libitum.
# [2] = Effect on triglyceride absorption after oral gavage with clinoleic 20% + cholesterol; format: in vivo, mice; conditions: for triglycerides, area under the curve: 0-360 min
# Description: 2. Effect of OBE2001 on Triglyceride Absorption The scope of this second in vivo experiment was to analyse the effects of the OBE2001 compound on triglycerides absorption. To that purpose, mice were injected with OBE2001, before and/or after gavage with a solution enriched with cholesterol and free fatty acids (clinoleic at 20%). In this study, 7 week old Swiss CD1 male mice were weighed and randomized for body weight; 3 groups of 5 mice were then constituted of: • Group 1 (solvant): control group. Vehicle (H2O+2% DMSO) at t-5 min+solution A (clinoleic 20%+cholesterol) at t0. • Group 2 (OBE 25+25): OBE2001 25 mg/kg (before and after gavage). OBE2001 25 mg/kg (solution B) at t-5 min+OBE2001 25 mg/kg in solution A (solution C) at t0. • Group 3 (OBE 25): OBE2001 25 mg/kg […]. Vehicle (H2O+2% DMSO) at t-5 min+OBE2001 25 mg/kg in solution A (solution C) at t0. 30 minutes before treatment (with solution A, B or C) blood was collected by retro orbital puncture after a slight anaesthesia (Isoflurane), to determine basal (t0) triglycerides levels. All solutions were then administered by oral gavage at t-5 (vehicle or solution B) or t0 (solution A or C). After administration of the solution A or C (containing fatty acids+cholesterol), blood was collected again by retro orbital puncture after a slight anaesthesia (Isoflurane) at time 60, 120, 180, 300 and 360 minutes for measurement of triglycerides levels. At time 360 minutes, mice were sacrificed.
# Enteropeptidase = Enteropeptidase (Homo sapiens, UniProt P98073); test: Enteropeptidase
# Excerpt: (§1) Table printed on a drawing sheet, Fig. 5
# Head of the field: Enteropeptidase
# (§2) The patent's description of the figure: FIG. 5 is a Table showing the IC 50 (in nM) of enteropeptidase, various serine proteases and other enzyme families, in the presence of compounds OBE 1999, OBE 2000, OBE 2001 or OBE 2002.
# (§3) First copying reader's note: Each column is one compound; each row gives its IC50 against the named enzyme.
# Where the first naming reader finds the target: head: Enteropeptidase
# Plasmin = Plasmin (Homo sapiens, UniProt P00747); test: Plasmin
# Excerpt: as §1
# Head of the field: Plasmin
# as §2, §3
# Where the first naming reader finds the target: head: Plasmin
# Kallikrein = Kallikrein (Homo sapiens, UniProt P03952); test: Kallikrein
# Excerpt: as §1
# Head of the field: Kallikrein
# as §2, §3
# Where the first naming reader finds the target: head: Kallikrein
# Enteropeptidase, sequence (P98073 2-1019): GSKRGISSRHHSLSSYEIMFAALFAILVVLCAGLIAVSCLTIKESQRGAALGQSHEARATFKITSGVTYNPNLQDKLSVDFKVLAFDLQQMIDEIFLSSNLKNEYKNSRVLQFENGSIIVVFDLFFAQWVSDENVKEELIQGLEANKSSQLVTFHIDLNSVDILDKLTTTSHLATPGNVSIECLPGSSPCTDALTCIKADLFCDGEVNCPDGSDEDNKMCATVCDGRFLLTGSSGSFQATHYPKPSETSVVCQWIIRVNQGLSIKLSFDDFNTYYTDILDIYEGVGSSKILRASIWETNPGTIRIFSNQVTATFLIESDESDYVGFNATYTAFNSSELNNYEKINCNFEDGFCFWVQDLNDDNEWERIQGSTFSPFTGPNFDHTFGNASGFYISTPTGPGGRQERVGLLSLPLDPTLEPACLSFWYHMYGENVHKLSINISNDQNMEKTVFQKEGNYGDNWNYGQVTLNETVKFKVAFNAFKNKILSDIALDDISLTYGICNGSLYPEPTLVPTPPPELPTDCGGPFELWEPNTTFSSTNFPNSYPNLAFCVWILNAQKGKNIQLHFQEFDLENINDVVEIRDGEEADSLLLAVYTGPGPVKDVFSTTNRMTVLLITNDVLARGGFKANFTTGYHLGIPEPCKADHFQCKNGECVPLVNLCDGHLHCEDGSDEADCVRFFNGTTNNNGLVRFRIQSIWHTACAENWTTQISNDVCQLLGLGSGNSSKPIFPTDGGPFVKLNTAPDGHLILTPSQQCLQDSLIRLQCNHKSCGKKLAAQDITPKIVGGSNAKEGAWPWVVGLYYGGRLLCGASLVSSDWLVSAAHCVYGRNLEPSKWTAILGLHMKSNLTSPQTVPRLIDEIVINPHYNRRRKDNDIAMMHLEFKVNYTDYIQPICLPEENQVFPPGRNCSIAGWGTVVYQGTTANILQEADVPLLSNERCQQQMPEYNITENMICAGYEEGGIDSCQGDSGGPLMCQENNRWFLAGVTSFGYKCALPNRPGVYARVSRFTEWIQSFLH
# Kallikrein, sequence (P03952 20-638): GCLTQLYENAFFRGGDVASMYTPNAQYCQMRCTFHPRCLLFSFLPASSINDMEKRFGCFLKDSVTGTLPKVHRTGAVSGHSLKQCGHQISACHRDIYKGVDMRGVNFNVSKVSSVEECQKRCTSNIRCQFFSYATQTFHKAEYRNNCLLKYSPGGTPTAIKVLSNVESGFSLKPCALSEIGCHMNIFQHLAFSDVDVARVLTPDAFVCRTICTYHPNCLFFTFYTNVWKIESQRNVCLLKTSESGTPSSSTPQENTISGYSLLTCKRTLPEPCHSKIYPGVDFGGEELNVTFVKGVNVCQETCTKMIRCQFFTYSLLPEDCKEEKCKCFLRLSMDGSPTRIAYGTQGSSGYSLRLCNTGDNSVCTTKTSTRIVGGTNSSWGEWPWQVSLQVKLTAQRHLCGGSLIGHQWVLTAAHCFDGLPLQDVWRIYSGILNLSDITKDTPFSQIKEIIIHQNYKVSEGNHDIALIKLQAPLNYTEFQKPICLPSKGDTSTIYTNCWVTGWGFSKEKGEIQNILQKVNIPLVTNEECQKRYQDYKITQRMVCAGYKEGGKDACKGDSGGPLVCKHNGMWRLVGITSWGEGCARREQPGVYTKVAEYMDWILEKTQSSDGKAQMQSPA
# Plasmin, sequence (P00747 97-810): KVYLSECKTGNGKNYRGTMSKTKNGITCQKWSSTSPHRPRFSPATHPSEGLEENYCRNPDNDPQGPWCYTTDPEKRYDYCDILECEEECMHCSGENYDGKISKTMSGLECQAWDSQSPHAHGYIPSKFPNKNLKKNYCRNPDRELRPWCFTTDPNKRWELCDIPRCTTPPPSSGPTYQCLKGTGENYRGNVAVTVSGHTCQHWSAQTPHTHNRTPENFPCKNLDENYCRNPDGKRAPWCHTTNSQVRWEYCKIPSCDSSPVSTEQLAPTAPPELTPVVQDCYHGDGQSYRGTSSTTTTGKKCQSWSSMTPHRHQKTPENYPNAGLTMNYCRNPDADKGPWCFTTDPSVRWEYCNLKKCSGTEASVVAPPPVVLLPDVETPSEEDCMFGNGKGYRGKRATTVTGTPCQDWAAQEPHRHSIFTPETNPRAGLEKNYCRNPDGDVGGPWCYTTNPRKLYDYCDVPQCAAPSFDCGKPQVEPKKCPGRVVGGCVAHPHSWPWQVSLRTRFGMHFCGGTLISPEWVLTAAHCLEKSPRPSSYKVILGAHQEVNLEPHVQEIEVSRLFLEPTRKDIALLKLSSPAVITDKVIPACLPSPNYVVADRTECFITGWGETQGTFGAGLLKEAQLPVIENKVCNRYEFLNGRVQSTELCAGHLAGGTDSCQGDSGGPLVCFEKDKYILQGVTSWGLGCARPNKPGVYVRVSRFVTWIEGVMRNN
smiles,measurement,setting,value
CC(=O)N[C@@H](C)C(=O)N[C@@H](Cc1ccccc1)C(=O)N[C@@H](CCCNC(=N)N)B1OC2C[C@@H]3C[C@@H](C3(C)C)[C@]2(C)O1 (some centres unmarked) [OBE2001],weight of treated mice versus control group,"[1]; significant from day 4, highly significant from day 8",significantly lower
same,"gain or loss of weight according to the initial weight, mean",[1]; D1,-2.7 g
same,"gain or loss of weight according to the initial weight, mean",[1]; D2,-1.2 g
same,"gain or loss of weight according to the initial weight, mean",[1]; D3,-0.8 g
same,"gain or loss of weight according to the initial weight, mean",[1]; D4,0.2 g
same,"gain or loss of weight according to the initial weight, mean",[1]; D5,0.7 g
same,"gain or loss of weight according to the initial weight, mean",[1]; D6,1.0 g
same,"gain or loss of weight according to the initial weight, mean",[1]; D7,0.9 g
same,"gain or loss of weight according to the initial weight, mean",[1]; D8,1.3 g
same,"gain or loss of weight according to the initial weight, mean",[1]; D9,1.0 g
same,"gain or loss of weight according to the initial weight, mean",[1]; D10,1.1 g
same,"gain or loss of weight according to the initial weight, mean",[1]; D11,0.5 g
same,"gain or loss of weight according to the initial weight, mean",[1]; D12,1.8 g
same,"gain or loss of weight according to the initial weight, mean",[1]; D13,2.0 g
same,"triglycerides, area under the curve","[2]; Group 2, 25+25 mg/kg",48559
same,"triglycerides, area under the curve","[2]; Group 3, 25 mg/kg",56273
same,triglyceride absorption compared to the control group,"[2]; 25 mg/kg, groups 2 and 3",decrease in triglyceride absorption
same,"plasma triglycerides, % of basal value","[2]; 60 min, Group 2, 25 mg/kg at t-5 min + 25 mg/kg at t0, oral gavage",243.39 % of basal value
same,"plasma triglycerides, % of basal value","[2]; 60 min, Group 3, single 25 mg/kg in solution A at t0, oral gavage",293.17 % of basal value
same,"plasma triglycerides, % of basal value","[2]; 120 min, Group 2, 25 mg/kg at t-5 min + 25 mg/kg at t0, oral gavage",202.34 % of basal value
same,"plasma triglycerides, % of basal value","[2]; 120 min, Group 3, single 25 mg/kg in solution A at t0, oral gavage",269.24 % of basal value
same,"plasma triglycerides, % of basal value","[2]; 180 min, Group 2, 25 mg/kg at t-5 min + 25 mg/kg at t0, oral gavage",127.81 % of basal value
same,"plasma triglycerides, % of basal value","[2]; 180 min, Group 3, single 25 mg/kg in solution A at t0, oral gavage",126.45 % of basal value
same,"plasma triglycerides, % of basal value","[2]; 300 min, Group 2, 25 mg/kg at t-5 min + 25 mg/kg at t0, oral gavage",62.35 % of basal value
same,"plasma triglycerides, % of basal value","[2]; 300 min, Group 3, single 25 mg/kg in solution A at t0, oral gavage",70.22 % of basal value
same,"plasma triglycerides, % of basal value","[2]; 360 min, Group 2, 25 mg/kg at t-5 min + 25 mg/kg at t0, oral gavage",56.71 % of basal value
same,"plasma triglycerides, % of basal value","[2]; 360 min, Group 3, single 25 mg/kg in solution A at t0, oral gavage",60.92 % of basal value
same,% of decrease of triglyceride area under the curve versus group 1,"[2]; Group 2/group 1, 25+25 mg/kg, 25 mg/kg",26%
same,% of decrease of triglyceride area under the curve versus group 1,"[2]; Group 3/group 1, 25 mg/kg",14%
same,IC50,Enteropeptidase,7.3 nM
same,IC50,Plasmin,21.7 nM
same,IC50,Kallikrein,6.9 nM

# — patent US9481709B2, “Boropeptide inhibitors of enteropeptidase and their uses in treatment of obesity, overweight and/or diseases associated with an abnormal fat metabolism” (OBE THERAPY BIOTECHNOLOGY, priority 2007, dated 2016)
